One assay concerns AGS cells. As to the kind of experiment: Antiproliferative assay (MTT reduction), AGS gastric adenocarcinoma cells. In kind it is cell-based, human. The settings on record: Homo sapiens, 72 h; AGS gastric adenocarcinoma; 3 days treatment, MTT reduction; mean ± SD; >100 µM considered inactive. How it is done:
(§1) The compounds 1–20 were assessed for antiproliferative effect towards human lung fibroblasts (MRC-5) and the following human tumor cell lines: gastric adenocarcinoma (AGS), lung cancer cells (SK-MES-1), bladder carcinoma (J82) and promyelocytic leukemia (HL-60).
(§2) All human cell lines used in this work were purchased from the American Type Culture Collection (ATCC, Manasas, VA, USA). Normal lung MRC-5 fibroblasts (CCL-171), SK-MES-1 lung cancer cells (HTB-58) and J82 bladder carcinoma cells (HTB-1) were grown as monolayers in minimum essential Eagle medium (MEM) with Earles’s salts, 2 mM L-glutamine and 1.5 g/L sodium bicarbonate. Gastric adenocarcinoma AGS cells (CRL-1739) were grown as monolayers in Ham F-12 medium containing 1 mM L-glutamine and 1.5 g/L sodium bicarbonate. Promyelocytic leukemia HL-60 cells (CCL-240) were grown in suspension in RPM1 medium containing 1 mM sodium pyruvate and 2.0 g/L sodium bicarbonate. All media were supplemented with 10% heat-inactivated FBS, 100 IU/mL penicillin and 100 µg/mL streptomycin. Cells were grown in a humidified incubator with 5% CO2 in air at 37 °C. For the antiproliferative assay, adherent cells were plated at a density of 5 × 10^4 cells/mL and HL-60 cells at 30 × 10^4 cells/mL. Cells were seeded in 96-well plates (100 µL/well). One day after seeding, cells were treated with medium containing the compounds at concentrations ranging from 0 up to 100 µM during 3 days. The compounds were dissolved in DMSO (1% final concentration) and complete medium. Untreated cells (medium containing 1% DMSO) were used as 100% viability controls. […] Each concentration was tested in sextuplicate and experiments were repeated 2 times. Cell viability was determined by means of the MTT reduction assay at the end of the incubation with the products. The results were transformed to percentage of controls and the IC50 values were graphically obtained from the dose-response curves.
Background: Tetrazolium dyes change colour on reduction, which living cells bring about.

The next assay relates to HL-60 cells. Put plainly: Antiproliferative assay (MTT reduction), HL-60 promyelocytic leukemia cells. It counts as cell-based, human. Conditions: Homo sapiens, 72 h; HL-60 promyelocytic leukemia; 3 days treatment, MTT reduction; mean ± SD; >100 µM considered inactive. How it is done:
as §2, with “Normal lung MRC-5 fibroblasts (CCL-171), SK-MES-1 lung cancer cells (HTB-58) and J82 bladder carcinoma cells (HTB-1) were grown as monolayers in minimum essential Eagle medium (MEM) with Earles’s salts, 2 mM L-glutamine and 1.5 g/L sodium bicarbonate. Gastric adenocarcinoma AGS cells (CRL-1739) were grown as monolayers in Ham F-12 medium containing 1 mM L-glutamine and 1.5 g/L sodium bicarbonate.” left out, “products.” for “products. The results were transformed to percentage of controls and the IC50 values were graphically obtained from the dose-response curves.”

In the next assay the test system is MRC-5 normal fibroblasts. Put plainly: Antiproliferative assay (MTT reduction), MRC-5 normal lung fibroblasts. It counts as cell-based, human. The settings on record: Homo sapiens, MRC5, 72 h; MRC-5 normal fibroblasts; 3 days treatment, MTT reduction; mean ± SD; >100 µM considered inactive. How it is done:
as §2, with “Normal lung MRC-5 fibroblasts (CCL-171), SK-MES-1 lung cancer cells (HTB-58) and J82 bladder carcinoma cells (HTB-1) were grown as monolayers in minimum essential Eagle medium (MEM) with Earles’s salts, 2 mM L-glutamine and 1.5 g/L sodium bicarbonate. Gastric adenocarcinoma AGS cells (CRL-1739) were grown as monolayers in Ham F-12 medium containing 1 mM L-glutamine and 1.5 g/L sodium bicarbonate.” left out, “products.” for “products. The results were transformed to percentage of controls and the IC50 values were graphically obtained from the dose-response curves.”

Assay [1] has as its system MRC-5, AGS, SK-MES-1, J82 and HL-60 cell lines. Put plainly: Antiproliferative assay, panel of five human cell lines (summary in words). Conditions: SK-MES-1, J82, HL-60, up to 100 µM. It counts as cell-based. Here is the method:
as §1, §2

The subject of assay [2] is J82 bladder carcinoma cells. As to the kind of experiment: Antiproliferative assay (MTT reduction), J82 bladder carcinoma cells. It counts as cell-based, human. Conditions: Homo sapiens, 72 h; J82 bladder carcinoma; 3 days treatment, MTT reduction; mean ± SD; >100 µM considered inactive. Here is the method: as §2, with “Normal lung MRC-5 fibroblasts (CCL-171), SK-MES-1 lung cancer cells (HTB-58) and J82 bladder carcinoma cells (HTB-1) were grown as monolayers in minimum essential Eagle medium (MEM) with Earles’s salts, 2 mM L-glutamine and 1.5 g/L sodium bicarbonate. Gastric adenocarcinoma AGS cells (CRL-1739) were grown as monolayers in Ham F-12 medium containing 1 mM L-glutamine and 1.5 g/L sodium bicarbonate.” left out, “products.” for “products. The results were transformed to percentage of controls and the IC50 values were graphically obtained from the dose-response curves.”

Assay [3] has as its system SK-MES-1 lung cancer cells. Put plainly: Antiproliferative assay (MTT reduction), SK-MES-1 lung cancer cells. Conditions: Homo sapiens, 72 h; SK-MES-1 lung cancer cells; 3 days treatment, MTT reduction; mean ± SD; >100 µM considered inactive. It counts as cell-based, human. How it is done: as §2, with “Normal lung MRC-5 fibroblasts (CCL-171), SK-MES-1 lung cancer cells (HTB-58) and J82 bladder carcinoma cells (HTB-1) were grown as monolayers in minimum essential Eagle medium (MEM) with Earles’s salts, 2 mM L-glutamine and 1.5 g/L sodium bicarbonate. Gastric adenocarcinoma AGS cells (CRL-1739) were grown as monolayers in Ham F-12 medium containing 1 mM L-glutamine and 1.5 g/L sodium bicarbonate.” left out, “products.” for “products. The results were transformed to percentage of controls and the IC50 values were graphically obtained from the dose-response curves.”

The term IC50 denotes the concentration at which inhibition is half-maximal. Low readings indicate higher potency, high ones lower potency. As for `C=C1CCC2[C@](C)(CCC[C@]2(C)C(=O)OC)[C@H]1CC[C@@H](C)CCOCC[C@H](C)CC[C@H]1C(=C)CCC2[C@]1(C)CCC[C@]2(C)C(=O)OC` (stereo partly drawn) [Compound 7], the half-inhibitory concentration (IC50) (with AGS cells; in the assay with HL-60 cells; in the assay on MRC-5 normal fibroblasts; in assay [2]; in assay [3]) was more than 100 µM in each case. In addition, in assay [1], the “antiproliferative effect on the five cell lines (in words)” value (from here on “antiproliferative effect”) was “no antiproliferative effect”.
Turning to `C=C1CCC2[C@](C)(CCC[C@]2(C)C(=O)OC)[C@H]1CC[C@@H](C)CCn1cc(CCC(=O)OCC[C@H](C)CC[C@H]2C(=C)CCC3[C@]2(C)CCC[C@]3(C)C(=O)OC)nn1` (stereo partly drawn) [Compound 20], the concentration for half-maximal inhibition (IC50) (in the assay with AGS cells; with HL-60 cells; with MRC-5 normal fibroblasts; in assay [2]; in assay [3]) was more than 100 µM throughout. Besides, the “antiproliferative effect” value in assay [1] is reported as “no antiproliferative effect on any of the cell lines”.
With `C=C1CCC2[C@](C)(CCC[C@]2(C)C(=O)O)[C@H]1CC[C@@H](C)CC(=O)O` (stereo partly drawn) [Compound 2, Labd-8(17)-en-15,19-dioic acid], the IC50 (with AGS cells; in the assay with HL-60 cells; with MRC-5 normal fibroblasts; in assay [2]; in assay [3]) was more than 100 µM each time. For the same compound, the “antiproliferative effect” value in assay [1] is given as “no antiproliferative effect on any of the cell lines”.
Turning to `C=C1CCC2[C@](C)(CCC[C@]2(C)C(=O)O)[C@H]1CC[C@@H](C)CCOC(=O)CCc1cn(CC[C@H](C)CC[C@H]2C(=C)CCC3[C@]2(C)CCC[C@]3(C)C(=O)OC)nn1` (stereo partly drawn) [Compound 19], the half-inhibitory concentration (IC50) was more than 100 µM in the assay on AGS cells; 42.4 ± 2.5 µM with HL-60 cells; more than 100 µM in the assay with MRC-5 normal fibroblasts; more than 100 µM in assay [2]; more than 100 µM in assay [3]. For the same compound, the “antiproliferative effect” value in assay [1] is reported as “no antiproliferative effect on any of the cell lines, except on HL-60”.
Regarding `C=C1CCC2[C@](C)(CCC[C@]2(C)C(=O)OC)[C@H]1CC[C@@H](C)CCn1cc(CCC(=O)O)nn1` (stereo partly drawn) [Compound 6, 15-(4-(2-Carboxyethyl)-1H-1,2,3-triazol-1-yl)-imbricatolic acid methyl ester], the IC50 (in the assay on AGS cells; in the assay on HL-60 cells; in the assay on MRC-5 normal fibroblasts; in assay [2]; in assay [3]) was more than 100 µM in each case. Besides, the “antiproliferative effect” value in assay [1] is recorded as “no antiproliferative effect on any of the cell lines”.

The values above are taken from PMC6270601, “Dimeric Labdane Diterpenes: Synthesis and Antiproliferative Effects” (Molecules, 2013).
